# Tests used:
# [1] = system: Rat2 fibroblasts transformed with v-Src/Hu c-Src fusion gene; test: Anchorage independent Src-transformed fibroblast proliferation; format: cell-based; details: Rattus norvegicus, 120 h, suspension growth, MTS on Day 5, read-out: Src TF prolif IC50
# Method: Anchorage Independent Src-transformed Fibroblast Proliferation Test Procedure: Rat2 fibroblasts stably transformed with a plasmid containing a CMV promotor controlled v-Src/Hu c-Src fusion gene in which the catalytic domain of human c-Src is inserted in place of the v-Src catalytic domain in the v-Src gene are used for the measurement of src dependent suspension growth. Ultra-low cluster plates (Costar #3474) are seeded with 10,000 cells per well on Day 1.
# [2] = target: T1, Raf and/or Mek kinase (human c-Raf, GST-MEK1) (Homo sapiens, UniProt P04049+Q02750); test: Raf/Mek kinase cascade assay; format: biochemical; details: c-Raf dependent activation of GST-MEK and GST-MAPK, phospho-MAPK ELISA; (a)/(b)/(c) = average of two/three/four runs
# T1 construct: Sf9 insect cell lysate containing full length 6his-tagged recombinant human c-Raf; 6His; host or cells: Sf9 insect cells (c-Raf, used as lysate); E. coli (MEK1-GST, GST-MAPK)
# T1 sequence (P04049 whole entry): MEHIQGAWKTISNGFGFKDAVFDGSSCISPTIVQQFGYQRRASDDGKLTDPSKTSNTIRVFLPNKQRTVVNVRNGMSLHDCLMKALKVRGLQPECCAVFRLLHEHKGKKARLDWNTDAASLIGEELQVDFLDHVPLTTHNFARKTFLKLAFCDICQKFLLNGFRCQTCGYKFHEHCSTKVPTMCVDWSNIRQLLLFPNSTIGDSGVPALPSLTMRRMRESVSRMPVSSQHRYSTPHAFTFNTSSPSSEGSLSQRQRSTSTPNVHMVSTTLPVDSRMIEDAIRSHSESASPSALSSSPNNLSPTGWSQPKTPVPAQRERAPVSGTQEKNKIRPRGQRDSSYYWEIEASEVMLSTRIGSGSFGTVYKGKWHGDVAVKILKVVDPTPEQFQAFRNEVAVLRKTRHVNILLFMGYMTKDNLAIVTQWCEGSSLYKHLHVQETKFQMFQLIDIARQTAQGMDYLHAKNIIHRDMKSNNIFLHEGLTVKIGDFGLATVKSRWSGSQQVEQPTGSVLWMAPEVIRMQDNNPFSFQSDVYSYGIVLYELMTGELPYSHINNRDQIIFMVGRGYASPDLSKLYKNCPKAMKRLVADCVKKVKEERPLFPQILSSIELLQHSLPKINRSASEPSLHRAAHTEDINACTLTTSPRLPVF
# T1 sequence (Q02750 whole entry): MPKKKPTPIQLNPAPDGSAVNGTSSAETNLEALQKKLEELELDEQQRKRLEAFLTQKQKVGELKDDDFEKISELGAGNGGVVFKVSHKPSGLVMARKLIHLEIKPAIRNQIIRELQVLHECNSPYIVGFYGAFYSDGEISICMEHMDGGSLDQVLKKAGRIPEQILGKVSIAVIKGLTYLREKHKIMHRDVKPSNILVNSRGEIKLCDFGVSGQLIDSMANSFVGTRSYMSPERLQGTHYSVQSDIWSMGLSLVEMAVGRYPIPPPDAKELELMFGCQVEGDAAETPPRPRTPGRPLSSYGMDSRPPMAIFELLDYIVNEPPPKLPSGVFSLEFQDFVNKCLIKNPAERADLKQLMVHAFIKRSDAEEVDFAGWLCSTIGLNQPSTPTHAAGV
# Method: Raf/Mek Kinase Cascade Assay Procedure
# (Specific Activity: ˜200 U/ml). Human Non-active Mek-1-GST and human GST-MAP kinase (recombinant proteins produced in E. coli).
# Stock Solutions Raf/Mek Cascade Assay:
# • 1. Assay Dilution Buffer (ADB): 20 mM MOPS, pH 7.2, 25 mM β-glycerol phosphate, 5 mM EGTA, 1 mM sodium orthovanadate, 1 mM dithiothreitol; • 2. Magnesium/ATP Cocktail: 500 μM cold ATP and 75 mM magnesium chloride in ADB; • 3. Active Kinase: Human Active c-Raf: Use at 0.4 U per assay point; • 4. Non-active GST-MEK1: Use at 0.1 μg per assay point; and • 5. Non-active GST-p42 MAP Kinase: Use at 1.0 μg per assay point. Stock Solutions ELISA: • 1. TBST-Tris (50 mM, pH 7.5), NaCl (150 mM), Tween-20 (0.05%); • 2. Superblock (Pierce); • 3. Anti-GST Ab (Pharmacia); • 4. Anti-Phospho MAPK (Sigma); and • 5. Anti-Mouse Ab/Europium conjugate (Wallac). Assay Procedure: First Stage: c-Raf Dependent Activation of GST-MEK and GST-MAPK • 1. Add […] of ADB per assay (i.e. per well of a 96 well plate); • 2. Add 10 ml of 0.5 mM cold ATP and 75 mM magnesium chloride in ADB; • 3. Add 2 ml of c-Raf (0.4 U/assay), in conjunction with 1.6 ml non-active MEK1 (0.4 […]/assay); • 4. Add 4 ml of non-active GST-p42 MAP Kinase (1.0 mg/assay); • 5. Incubate for 60 minutes at 30° C. in a shaking incubator; • 6. Transfer this mixture to an anti-GST Ab coated 96 well plate (Nunc Immunosorb plates coated o/n with a-GST, then blocked with Pierce Superblock); • 7. Incubate for 60 minutes at 30° C. in a shaking incubator; • 8. Wash 3× with TBST, add Anti-Phospho MAPK (Sigma) (1:3000); • 9. Incubate for 60 minutes at 30° C. in a shaking incubator; • 10. Wash 3× with TBST, add Anti-Mouse Ab/Europium conjugate (Wallac) (1:500); • 11. Incubate for 60 minutes at 30° C. in a shaking incubator; • 12. Wash 3× with TBST, Read plates in Wallac Victor model Plate Reader; and • 13. Collect data analyze in Excel for single point and IC50 determinations.
# Single point assay—% inhibition at […] (% Inhibition=1−cpd·treated sample/untreated control). IC50 determinations—done on compounds from single point assays with >80% inhibition. Typically, the Raf/Mek assay is run at compound concentrations from 10 μM to 1 nM in half log dilutions. (% inhibition is determined for each compound concentration). The results obtained measure Raf and/or Mek kinase inhibition, and for representative compounds of this invention are listed in Table 1.
# HT-29 cells = test: HT-29 cell proliferation on plastic (MTS); format: cell-based; details: Homo sapiens; HT-29 cells on plastic, MTS on day five; read-out: HT-29 prolif IC50
# Method: Cell Proliferation Test Procedure for Inhibitors of Src Kinase
# HT-29 cells: Compound effectiveness at inhibiting cell proliferation on plastic is performed in a 96-well format by plating 5000 cells per well in appropriate medium on day one, followed by compound addition on day 2 in serial two-fold dilutions. On day five, compound is washed away and medium containing MTS reagent (Promega) is added. Relative cell number is determined by reading the absorbance at 490 nm of a dye produced by an NAD-dependent cellular enzymatic reaction.
# p60c-src = target: T2, p60c-src (Homo sapiens, UniProt P12931); test: Src kinase test procedure (ELISA); format: biochemical; details: cdc2 substrate peptide, (a) = average of two runs
# T2 construct: purchased Upstate Biotechnologies
# T2 sequence (P12931 whole entry): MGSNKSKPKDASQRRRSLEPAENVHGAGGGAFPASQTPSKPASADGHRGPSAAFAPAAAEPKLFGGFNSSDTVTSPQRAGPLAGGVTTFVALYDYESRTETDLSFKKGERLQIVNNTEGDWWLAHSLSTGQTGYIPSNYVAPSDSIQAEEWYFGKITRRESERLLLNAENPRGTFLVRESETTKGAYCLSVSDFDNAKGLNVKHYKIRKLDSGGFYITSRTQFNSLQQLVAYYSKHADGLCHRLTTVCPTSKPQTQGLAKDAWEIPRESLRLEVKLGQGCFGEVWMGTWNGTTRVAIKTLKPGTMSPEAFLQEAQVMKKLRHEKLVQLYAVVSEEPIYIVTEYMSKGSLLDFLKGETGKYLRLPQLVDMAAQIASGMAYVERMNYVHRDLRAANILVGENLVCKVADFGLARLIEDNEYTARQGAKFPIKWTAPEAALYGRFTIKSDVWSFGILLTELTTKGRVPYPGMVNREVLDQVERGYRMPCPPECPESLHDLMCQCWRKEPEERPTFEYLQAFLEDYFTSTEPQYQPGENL
# Method: Src Kinase Test Procedure
# Inhibitors of p60^c-src (partially purified preparation purchased from Upstate Biotechnologies) tyrosine kinase activity are analyzed in an Elisa format. The Boehringer Mannheim Tyrosine Kinase Assay Kit (Catalog number 1-534505) with a cdc2 substrate peptide containing Tyr15 is used for the assay. HRP-conjugated anti-phosphotyrosine is used to detect phosphorylated peptide via a color reaction. Conditions recommended by the manufacturer are employed.
# Reaction conditions: Five microliter aliquots of each compound prepared fresh at the time of the assay are added as a solution in 10 mM HEPES pH 7.5, 10% DMSO to the reaction well. Thirty-five microliters of reaction mix containing Src, buffer and peptide/bovine serum albumin mix are added to the compound wells and incubated at 30° C. for 10 minutes (reaction buffer: 50 mM Tris HCl pH 7.5, 10 mM MgCl2, 0.1 mM EGTA, 0.5 mM Na3VO4). The reaction is started by addition of 10 microliters of ATP, incubated at 30° C. for 1 hour, and stopped by addition of 20 microliters of 0.5M EDTA. The reaction mixture with the phosphorylated peptide is then transferred to a streptavidin-coated microtiter plate (provided in the kit) and allowed to bind for 20 minutes. Unbound peptide and reaction mixture is decanted and the plate is washed with PBS six times. Horseradish peroxidase-conjugated phosphotyrosine antibody supplied in the kit is incubated with the plate for one hour, then decanted. The plate is again ished with PBS six times. Substrate (provided in the kit) is added and absorbance at 405 nm is measured.
# Activity is determined as % inhibition as calculated by the formula: (1−Abs/Abs(max))×100=% inhibition. Where multiple concentrations of the test agent are used, an IC50 (concentration which gives 50% inhibition) could be determined.
structure (smiles),measurement,setting,value
COc1cc(Nc2c(C#N)cnc3cc(OCCCN4CCC(N5CCCC5)CC4)c(OC)cc23)c(Cl)cc1Cl [Example 34],melting point,,108 to 112 °C
same,IC50,[1],0.466 µM
same,IC50,[2],0.25 µM
same,IC50,HT-29 cells,2.6 µM
same,IC50,p60c-src,0.00055 µM

# Reference: patent US7767671B2, “3-Quinolinecarbonitrile protein kinase inhibitors” (Wyeth, priority 2004, dated 2010)
